Test results: patent publication US20190353647A1, “NOVEL REAL-TIME MULTIPLEXED, MULTI-COLOR BIOLUMINESCENCE RESONANCE ENERGY TRANSFER ASSAY, APPARATUS, AND USES THEREOF” (Universite de Bordeaux, priority 2016, published 2019)

Experiments:
TRPV3 = target: T1, TRPV3 (Homo sapiens, UniProt Q8NET8); experiment: Intermolecular BRET assay, Luc-TRPV3/YFP-CaM in HEK293T cells; type: cell-based; parameters: expressed in transfected cells; host or cells: HEK293T; details: dose-response; for BRET signal between YFP-CaM and Luc-TRPV3 on challenge: FIG. 1
T1 sequence (Q8NET8 1-790): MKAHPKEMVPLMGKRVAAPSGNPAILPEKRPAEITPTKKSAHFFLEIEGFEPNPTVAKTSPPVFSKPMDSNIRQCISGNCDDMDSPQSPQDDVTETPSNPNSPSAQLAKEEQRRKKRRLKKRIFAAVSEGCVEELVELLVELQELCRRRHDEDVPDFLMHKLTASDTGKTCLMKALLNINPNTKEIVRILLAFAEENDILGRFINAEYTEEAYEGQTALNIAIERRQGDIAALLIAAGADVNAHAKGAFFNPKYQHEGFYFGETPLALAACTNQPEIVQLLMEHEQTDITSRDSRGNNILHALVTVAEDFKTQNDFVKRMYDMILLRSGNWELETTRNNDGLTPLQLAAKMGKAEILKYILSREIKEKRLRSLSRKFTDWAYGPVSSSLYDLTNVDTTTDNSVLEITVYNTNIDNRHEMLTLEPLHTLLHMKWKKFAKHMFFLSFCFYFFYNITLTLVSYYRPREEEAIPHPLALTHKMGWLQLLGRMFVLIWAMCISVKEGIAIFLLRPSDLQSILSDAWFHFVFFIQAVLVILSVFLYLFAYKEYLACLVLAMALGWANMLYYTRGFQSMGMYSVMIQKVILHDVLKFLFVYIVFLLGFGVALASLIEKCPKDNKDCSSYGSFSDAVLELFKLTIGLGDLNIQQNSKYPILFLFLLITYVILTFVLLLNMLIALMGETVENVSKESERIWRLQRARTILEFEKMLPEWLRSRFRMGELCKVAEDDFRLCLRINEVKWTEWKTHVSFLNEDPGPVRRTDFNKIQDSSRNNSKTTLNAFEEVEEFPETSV
Text: (§1) In order to generate the BRET constructs, super Yellow Fluorescent Protein 2 and Renilla Luciferase II were used to improve the brightness of the assay. They were referred as YFP and Luc for short in the rest of the manuscript. The cDNA of Luc and YFP were first cloned together using a three-piece ligation in the BamHI/XhoI site of pcDNA3.1(+) (Invitrogen, Carlsbad, Calif., USA), yielding two expression vectors pcDNA3.1 YFP-Luc where YFP was cloned in-fusion at the N-terminal of Luc, and pcDNA3.1 Luc-YFP where Luc was cloned in-fusion at the N-terminal of YFP. Both YFP and Luc were amplified by PCR from the pcDNA3-YFP-EPAC-Luc vector. Luc was cloned either at the N-terminal of YFP as a HindIII-EcoRI fragment (primers used: “Luc_HindIII_ATGN-term sense” and “Luc_no Stop_EcoRI_N-term antisense”) or at the COOH-terminal of YFP as an EcoRI-XhoI fragment (primer used: “Luc_EcoRI_ATG_C-term sense” and “Luc_XhoI_Stop_C-term antisense”). In parallel, YFP was cloned either at the N-terminal of Luc as a HindIII-EcoRI fragment (primers used: “YFP_HindIII_ATG_N-term sense” and “YFP_no Stop_EcoRI_N-term antisense”) or at the COOH-terminal of Luc as a EcoRI-XhoI fragment (primer used: “YFP_EcoRI_ATG_C-term sense” and “YFP_XhoI_Stop_C-term antisense”). The sequence joining Luc and YFP sequence encoded […] (SEQ ID NO: 18) as a linker, and contained an AgeI restriction site. The YFP-hTRPV1-Luc expression vector was obtained by subcloning the human TRPV1 cDNA from the pDONR201-hTRPV1 vector (Harvard Medical School PlasmID Repository, clone HsCD00081472) as an EcoRI PCR fragment in the EcoRI site of the vector pcDNA3.1 YFP-Luc (primer used: “hTRPV1_EcoRI_Fus_Sense” and “hTRPV1_EcoRI_Fus_antisense”). The hTRPV1-Luc expression vector was obtained by subcloning the cDNA of hTRPV1 as a HindIII-EcoRI fragment in place of the YFP in the HindIII-EcoRI site of the pcDNA3.1 YFP-Luc vector (primer used: “hTRPV1_HindIII_ATG_Sense” and “hTRPV1_EcoRI_Fus_antisense”). […]
(§2) HEK293T cells were maintained in Dulbecco's modified Eagle's medium-high Glucose (DMEM) (D6429, Sigma) supplemented with 10% fetal bovine serum, 100 units mL-1 penicillin and streptomycin. […] After overnight incubation, transfected cells were then detached, resuspended in DMEM w/o red phenol (Ref 21063-029, ThermoFisher scientific, Waltham, Mass., USA) and replated at a density of 10^5 cells per well in 96-well white plates with clear bottoms (Greiner Bio one, Courtaboeuf, France) pre-treated with D-polylysine (Sigma) for reading with the Tristar2 luminometer (Berthold Technologies, Bad Wildbad, Germany) or onto 12 mm diameter glass coverslips (Knittel Glass, Braunschweig, Germany) treated with poly-L-lysine for the reading with the SpectraPro 2300i spectrometer (Acton Optics, Acton, Mass., USA). […]

TRPV4 = TRPV4 (Homo sapiens, UniProt Q9HBA0); experiment: Intermolecular BRET assay, TRPV4-Luc/YFP-CaM in HEK293T cells; type: cell-based; parameters: expressed in transfected cells; host or cells: HEK293T; details: for TRPV4-Luc/YFP-CaM basal BRET signal on challenge: HEK293T, dose-response, FIG. 1
Text: as §1, §2

Sequence of TRPV4 (Q9HBA0 whole entry): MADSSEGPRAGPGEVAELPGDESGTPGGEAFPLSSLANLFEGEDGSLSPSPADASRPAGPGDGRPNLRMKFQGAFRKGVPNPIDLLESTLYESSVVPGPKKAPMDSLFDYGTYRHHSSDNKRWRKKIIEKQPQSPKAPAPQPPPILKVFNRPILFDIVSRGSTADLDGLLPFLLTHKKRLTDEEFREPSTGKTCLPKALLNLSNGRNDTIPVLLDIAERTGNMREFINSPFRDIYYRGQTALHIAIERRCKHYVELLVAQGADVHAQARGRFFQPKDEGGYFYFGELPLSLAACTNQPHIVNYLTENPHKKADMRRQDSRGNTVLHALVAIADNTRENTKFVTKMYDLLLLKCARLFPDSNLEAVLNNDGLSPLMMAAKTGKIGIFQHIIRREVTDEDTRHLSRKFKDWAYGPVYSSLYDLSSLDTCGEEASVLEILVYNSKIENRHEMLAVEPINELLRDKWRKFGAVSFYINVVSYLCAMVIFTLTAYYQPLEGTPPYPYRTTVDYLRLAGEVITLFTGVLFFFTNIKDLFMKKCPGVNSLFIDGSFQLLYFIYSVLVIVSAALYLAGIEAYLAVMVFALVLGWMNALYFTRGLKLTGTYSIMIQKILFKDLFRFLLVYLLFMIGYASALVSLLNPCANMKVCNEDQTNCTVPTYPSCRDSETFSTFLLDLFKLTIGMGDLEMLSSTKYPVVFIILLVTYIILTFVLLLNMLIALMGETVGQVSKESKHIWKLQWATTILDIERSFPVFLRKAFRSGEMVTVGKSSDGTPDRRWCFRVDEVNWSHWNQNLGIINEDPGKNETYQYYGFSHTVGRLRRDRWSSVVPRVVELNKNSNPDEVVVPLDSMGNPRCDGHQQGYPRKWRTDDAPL

In the case of `COc1cc(CNC(=O)CCCC/C=C/C(C)C)ccc1O` [CAPS, Capsaicin], the “BRET signal between YFP-CaM and Luc-TRPV3 on challenge” value (TRPV3) is reported as “no dose-dependent BRET increase” and the “TRPV4-Luc/YFP-CaM basal BRET signal on challenge” value (TRPV4) is reported as “did not produce any increase”.
For `CCN(CC)CCOC(=O)C(c1ccccc1)C1CCCCC1` (centres unmarked) [Drofenine], the “BRET signal between YFP-CaM and Luc-TRPV3 on challenge” value (TRPV3) was “dose-dependent increase”, the EC50 (TRPV3; FIG. 1, read-out: EC50 of BRET signal increase between YFP-CaM and Luc-TRPV3) was 206 µM and the “TRPV4-Luc/YFP-CaM basal BRET signal on challenge” value (TRPV4) was “did not produce any increase”.
In the case of `CC(C)C[C@H](NC(=O)c1cc2ccccc2s1)C(=O)N1CCN(C(=O)[C@H](CO)NS(=O)(=O)c2ccc(Cl)cc2Cl)CC1` [GSK1016790A], the “BRET signal between YFP-CaM and Luc-TRPV3 on challenge” value (TRPV3) is reported as “no dose-dependent BRET increase”, the EC50 (TRPV4) is reported as 0.00193 µM and the “TRPV4-Luc/YFP-CaM basal BRET signal on challenge” value (TRPV4) is reported as “dose-dependent increase”.
